Experimental data taken from patent publication US8642350B2, “Sensor material and uses thereof to simultaneously sense two analytes: oxygen and pH or acidic/basic gaseous ions” (University College Cork, National University of Ireland, …, priority 2010, dated 2014).

Assays:
Assay type in all cases: physicochemical
[1] = Oxygen calibration by phosphorescence lifetime (quenching by dissolved O2); settings: for quenching by dissolved O2: sensors in aqueous solutions, 0-21 kPa O2; for Lifetime 0% O2 / Lifetime 21% O2: solid state sensor form; for Lifetime 0% O2: 0% O2, 24° C.; for Lifetime 21% O2: 21% O2, 24° C.
Method: (§1) FIG. 2: Oxygen calibration in the phosphorescence lifetime (A) and Stern-Volmer (right) scales for the Pt-OEP-CH═N—CH3 (♦) and Pd-OEP-CH═N—CH3 (▪) sensors, measured in sodium acetate, pH 6 at 24° C. (B). pH calibration of Pt-OEP-CH═N—CH3 (absorbance) at certain pH steps, the two black bars show the bandwidth of commercial LEDs at 400 nm and 450 nm (C) and of Pt-OEP-CH═N—CH3 (♦) and Pd-OEP-CH═N—CH3 (▪) at 24° C. and 30° C. respectively (emission intensity) (D), measured in sodium acetate.
(§2) This cocktail of sensor components was applied in 2 μl aliquots on a solid support (e.g. Mylar® foil or microporous polymeric membrane) and left to evaporate all the solvents. […] Other sensor formulations can also be used, such formulations are known to specialists in the area.
(§3) Thin film (˜5 μm) sensor coatings produced according to Table 1 were studied for their photophysical, O2 and pH sensing properties.
The unquenched phosphorescence lifetime of 70 μs in O2-free buffer (at 24° C.) was close to that of the other Pt-porphyrins and O2 sensors on their basis. In air-saturated solution (20.9 kPa or 250 μM) the lifetime was reduced by approximately 60%. […] Full O2 calibrations of the two sensors show a pronounced non-linearity of Stern-Volmer plots (in FIG. 2B).

[2] = Absorption and emission spectra of thin film sensor coatings; settings: solid state sensor form
Excerpt: On the other hand, protonation of the peripheral group (Schiff base) leads to the formation of a delocalised carbocation represented by 10 resonant structures. This process is accompanied by major spectral changes: a shift in absorbance peak from 398 nm to 443 nm and the disappearance of the porphyrin type of electronic spectra and phosphorescence. The process is reversible and potentially allows for sensing of the protonation or pH changes by means of absorbance or phosphorescence measurements.
as §2, §3

[3] = pH calibration (pKa) of solid state sensors by absorbance / phosphorescence intensity; settings: for pH range covered by the sensor: air-saturated buffer; for pKa value (21% O2) 0 mM NaCl / pKa value (21% O2) 500 mM NaCl: solid state sensor form
Method: as §1, §2, §3
With respect to their pH sensitivity, the two sensors produced the anticipated spectral responses which occurred in the useful range of pH. […] However, the decrease in phosphorescence intensity signal occurred without any significant changes in the phosphorescence lifetime.

cross-sensitivity of O2 response to pH ([1]; phosphorescence lifetime modality) | O2 range the dual-analyte sensor is well suited for ([1]; physiological range) [µM] | unquenched lifetime ([1]; sensor, unquenched) [µs] | quenching by dissolved O2 [1] | Lifetime 0% O2 [1] | Lifetime 21% O2 [1] | Emission [2] [nm] | Absorption ([2]; pH 2.0) | Absorption ([2]; pH 8.0) | pH range covered by the sensor ([3]; 24° C.) | pH range the dual-analyte sensor is well suited for ([3]; physiological range) | pKa value (21% O2) 0 mM NaCl ([3]; 24° C.) | pKa value (21% O2) 0 mM NaCl ([3]; 30° C.) | pKa value (21% O2) 500 mM NaCl ([3]; 24° C.) | pKa value (21% O2) 500 mM NaCl ([3]; 30° C.) | reduction of lifetime in air-saturated solution ([1]; air-saturated solution (20.9 kPa or 250 μM O2)) | unquenched phosphorescence lifetime ([1]; sensor in O2-free buffer, 24° C.) [μs] | pKa more acidic than the Pd-OEP-CH═N—CH3 sensor ([3]; difference between the two sensors) [pH unit] | Structure (SMILES)
no cross-sensitivity to pH | 0 to 200 | 147 | more favorable quenchability | 172 (24° C.) μs | 33 (24° C.) μs | 673 | 443 (pH 2.0) nm | 398 (pH 8.0) nm | 6.5-8.0 | 6-8 | 5.9 (24° C.) | 6.9 (30° C.) | 5.5 (24° C.) | 6.5 (30° C.) | – | – | – | CN=CC1=C2N=C(C=c3c(C)c(CCC(=O)OC)c4[n]3[Pd][n]3c(c(C)c(CCC(=O)OC)c31)C=C1N=C(C=4)C(C)=C1CCC(=O)OC)C(CCC(=O)OC)=C2C [Pd—CPE—CH═NMe]
– | – | – | moderate quenching | 60 (24° C.) μs | 36 (24° C.) μs | 670 | 443 (pH 2.0) nm | 398 (pH 8.0) nm | 5-7 | – | 4.3 (24° C.) | 5.9 (30° C.) | – | 5.5 (30° C.) | approximately 60% | 70 | ~1 | CCC1=C(CC)c2cc3[n-]c(c(C=NC)c4nc(cc5[n-]c(cc1n2)c(CC)c5CC)C(CC)=C4CC)c(CC)c3CC.[Pt+2] [Pt—OEP—CH═NMe]
